This note sets out measurements from patent publication US20030045541A1, “GABA-Receptor modulators with NMDA-Antagonistic activity” (priority 2001, published 2003).

SMILES strings stand for the structures.

Test [1] deals with primary cell cultures of cortical neurons of rats. The test can be described thus: Oxygen and glucose deprivation (OGD) model, LDH level in the medium. The following applies: for LDH level: OGD, after 24 hours, OGD control 25.1. The class given is cell-based. As to the method: The measurements were performed on primary cell cultures of cortical neurons of rats. After the cells were grown in culture, the following test was performed:
Glucose and oxygen were simultaneously removed from the culture solution. This model is a definitely sturdy model, which simulates the conditions during a very serious and very extensive stroke. In the zero comparison, the culture solution was left unchanged (BSS=balanced salt solution). In the control, oxygen and glucose were removed (OGD=oxygen and glucose deprivation); in the test group, Abecarnil was added simultaneously to the oxygen and glucose removal.
As damage parameters for the neurons, the LDH (lactate-dehydrogenase) level in the solution was measured by the cells. LDH is a definitely reliable stress parameter for the cells. The stronger the neuronal stress is or the more cells are already ruined, the more the LDH levels in the medium increase. From a pharmaceutical agent with a neuroprotective effect, it can be expected that it reduces the LDH level in the medium.
In FIG. 1, the values of such a measurement were depicted. If the LDH levels were below OGD 25.1, they were 11.0 with 0.1 μm of Abecarnil; 6.2 with 1 μm of Abecarnil; 14.9 with 10 μm of Abecarnil, and 15 with 100 μm of Abecarnil (after 24 hours). In the case of an Abecarnil concentration of 1 μm, this corresponds to an LDH reduction of over 75%!

Test [2] relates to GABAA-receptor-mediated IPSCs. The test can be described thus: Inhibitory post-synaptic flows (IPSCs), patch-clamp on cultivated neurons. The class given is cell-based, Wistar. As to the method:
(§1) The measurements were produced on cultivated neurons of Wistar embryos on the eighteenth day of gestation. After the preparation, the neurons were grown on small plates. To this end, small cover glasses for microscopic preparations with a diameter of 12 mm (assistant) were used. In each case four of the small cover glasses were transferred to a small plastic dish (Nuncion).
As preparation media, the following solutions were used: GBSS (Grey's buffered salt solution, Sigma) supplemented with 10 mmol of HEPES (N-2-hydroxyethyl-piperazine-N-2-ethanesulfonic acid, Sigma), adjusted to pH 7.3 with NaOH (Sigma). As culture media, the following were used: DMEM (Sigma), glucose-containing, equine serum 10% (Sigma) and glutamine. The cells were generally divided so that at the beginning of the culture, 50,000 cells per small plate were present. The medium was changed according to the preparation after 24 hours and then changed after three days in each case. Synaptic spontaneous activity developed generally starting from the tenth day in vitro.
The extracellular measuring solution had the following composition (in mmol): NaCl 140; KCl 5.4; CaCl2 2; HEPES 10; MgCl 1; glucose 25. The pH was set at 7.4 with NaOH. IPSCs were isolated by adding 1,2,3,4,-tetrahydro-6-nitro-2,3-di-oxo-benzo-quinoxaline-7-sulfonamide (NBQX 10 μm) and DL-2-amino-5-phosphonovaleric acid (±-APV 30 μm). EPSCs were isolated by adding bicuculline (10 μm) and picrotoxin (20 μm). In the examination of the EPSCs, a ringer solution without MgCl2 was used. The pipette solution had the following composition (in mmol): KCl 120; MgCl2 2; CaCl2 1; HEPES 10; EGTA 11; glucose 20; the pH was 7.2.
(§2) The measurements were carried out at room temperature. […] The thus modulated signals were visualized by means of a storage oscilloscope and recorded with a thermal plotter. At the same time, the signals were detected via a […] and recorded on a videotape. The stored data were later played back, digitalized again and then evaluated “offline” with a PC. […]
(In general: In patch-clamp work, channel activity is measured electrically.)

The next test has as its system glutamatergic EPSCs. The test can be described thus: Excitatory post-synaptic flows (EPSCs), patch-clamp on cultivated neurons. The following applies: P<0.05. The class given is cell-based, Wistar. As to the method:
as §1
(§3) As preparation media, the following solutions were used: GBSS (Grey's buffered salt solution, Sigma) supplemented with 10 mmol of HEPES (N-2-hydroxyethyl-piperazine-N-2-ethanesulfonic acid, Sigma), adjusted to pH 7.3 with NaOH (Sigma). […]
as §2
Excitatory post-synaptic flows (EPSCs) were isolated by adding the GABAA-receptor antagonists bicuculline (20 μm) and the GABAA-receptor antagonist picrotoxin (10 μm) that has an allosteric effect. […] The pure EPSCs that can now be detected could be blocked completely by adding 10 μm of NBQX and 30 μm of APV and thus are purely glutamatergic.

Another test concerns AMPA-ergic activity. The test can be described thus: Isolated AMPA-ergic activity of EPSCs (30 μm APV applied). Format: cell-based, Wistar. Particulars: 30 μm of APV on isolated EPSCs; n=3. As to the method: as §1, §3, §2
(§4) Excitatory post-synaptic flows (EPSCs) were isolated by adding the GABAA-receptor antagonists bicuculline (20 μm) and the GABAA-receptor antagonist picrotoxin (10 μm) that has an allosteric effect. […] The pure EPSCs that can now be detected could be blocked completely by adding 10 μm of NBQX and 30 μm of APV and thus are purely glutamatergic. […]

The next test deals with NMDA receptor. The test can be described thus: Isolated NMDA portion of EPSCs (10 μm NBQX applied). The following applies: 10 μm of NBQX on isolated EPSCs, 1 μm of compound; n=7. Format: cell-based, Wistar. As to the method:
as §1, §3, §2, §4

On to `COCc1c(C(=O)OC(C)C)ncc2[nH]c3ccc(OCc4ccccc4)cc3c12` [Abecarnil, 6-benzyloxy-4-methoxymethyl-β-carboline-3-carboxylic acid isopropyl ester], for which the LDH level is 11.0 in test [1] (0.1 μm of Abecarnil), 6.2 in test [1] (1 μm of Abecarnil), 14.9 in test [1] (10 μm of Abecarnil) and 15 in test [1] (100 μm of Abecarnil). Besides, the LDH reduction result in test [1] (1 μm of Abecarnil, versus OGD) is “over 75%”. Besides, the “slow time constant of the averaged IPSCs (τslow), % of the starting value” in test [2] (P<0.05) is listed as 289.7±180.9%. For the same molecule, the “IPSC frequency, % of the starting value” in test [2] (n=10, P<0.05) was 33.8±24.7%. Also, the “quick time constant of the averaged IPSCs (τfast), % of the starting value” in test [2] (no statistical significance) amounted to 143.9±51.0%. Besides, the “EPSC amplitude, % of the starting value” in the test on glutamatergic EPSCs turned out to be 81.2±17.8%. The “EPSC frequency, % of the starting value” in the test on glutamatergic EPSCs was 32.6±19.8%. In addition, the “effect on isolated AMPA-ergic activity” value in the test with AMPA-ergic activity was “no effect”. In the test with NMDA receptor, the “effect on isolated NMDA portion of EPSC activity” value is listed as “completely blocked”.
